The values that follow come from patent EP4782453A1 (Beyang Therapeutics Co., Ltd., priority 2023, dated 2025).

The target in one assay is T1, Menin-MLL (Homo sapiens, UniProt O00255).
T1 construct: His-Menin (M1-L615 end); purchased BIORTUS BP9210
T1 sequence (O00255 1-615 isoform O00255-1): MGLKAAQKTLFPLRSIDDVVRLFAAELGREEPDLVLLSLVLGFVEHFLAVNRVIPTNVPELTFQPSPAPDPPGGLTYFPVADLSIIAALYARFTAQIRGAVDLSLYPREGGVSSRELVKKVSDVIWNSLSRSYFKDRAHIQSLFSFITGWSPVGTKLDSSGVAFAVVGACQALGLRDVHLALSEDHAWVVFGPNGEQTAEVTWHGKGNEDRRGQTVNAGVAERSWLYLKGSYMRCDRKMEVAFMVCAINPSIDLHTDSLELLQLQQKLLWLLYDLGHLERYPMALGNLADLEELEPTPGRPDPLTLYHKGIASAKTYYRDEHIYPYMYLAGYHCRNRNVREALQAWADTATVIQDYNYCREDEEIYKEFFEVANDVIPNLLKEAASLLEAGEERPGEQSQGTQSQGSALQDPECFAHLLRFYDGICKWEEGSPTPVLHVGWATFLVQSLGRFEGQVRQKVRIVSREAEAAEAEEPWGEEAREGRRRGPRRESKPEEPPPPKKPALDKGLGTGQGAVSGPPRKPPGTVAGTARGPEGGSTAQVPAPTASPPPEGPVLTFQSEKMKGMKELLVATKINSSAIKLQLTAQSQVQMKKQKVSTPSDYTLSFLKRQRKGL
The assay can be described thus: Inhibitory activity against Menin-MLL binding (fluorescence polarization). Particulars: Menin-MLL IC50, fluorescence polarization; 150 nM His-Menin, 15 nM FITC-MLL; 25°C for 60 min. The essentials:
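Fluorescence polarization competition: compound and 150 nM His-tagged menin (residues M1-L615) sit 15 min at 25 °C in pH 7.5 HEPES buffer with NaCl, DTT and BSA; 15 nM FITC-labelled MLL peptide then binds for 60 min. IC50 fitted sigmoidally from mP values, duplicate wells.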
(In general: Polarisation of emitted light reports the rotation of a fluorescent probe.)
For `CCN(C(=O)c1cc(F)ccc1-c1cc(C2CN(C(=O)[C@H]3NC[C@@H]4CCC[C@@H]43)C2)cn2c(C)nc(F)c12)C(C)C` [Example 274], the half-inhibitory concentration (IC50) – broadly, the concentration needed to halve the response being measured – amounted to 19.5 nM.

`CCN(C(=O)c1cc(F)ccc1-c1cc(N2CCN(C(=O)[C@@H]3CCC(C)(C)N3)CC2)cn2c(C)nc(Cl)c12)C(C)C` [Example 111] registered a half-maximal inhibitory concentration (IC50) of 38 nM.

Staying with this assay, now noted: fluorescence polarization; 150 nM His-Menin, 15 nM FITC-MLL; 25°C for 60 min; read-out: Menin-MLL IC50.
With `Cc1nc(F)c2c(-c3ccc(F)cc3C(=O)N3CCOC[C@H]3C)cc(C3CN(C(C)C4CCOCC4)C3)cn12` (stereo partly drawn) [Example 238, (3R)-4-[5-fluoro-2-(1-fluoro-3-methyl-6-{1-[1-(oxacyclohexan-4-yl)ethyl]azacyclobutan-3-yl}imidazo[1,5-a]pyridin-8-yl)benzoyl]-3-methylmorpholine], the IC50 is 10 nM.

Turning to `CCN(C(=O)c1cc(F)ccc1-c1cc(C2CCN(CC3CCCCC3)C2)cn2cncc12)C(C)C` (stereo not shown) [Example 44], the half-maximal inhibitory concentration (IC50) worked out at 29.5 nM.

As to `CCN(C(=O)c1cc(F)ccc1-c1cc(C2CN(C(CCCN3CCN(CCO)CC3)C(C)C)C2)cc2c(C)ncn12)C(C)C` (stereo not shown) [Example 466, N-ethyl-5-fluoro-2-[7-(1-{6-[4-(2-hydroxyethyl)piperazin-1-yl]-2-methylhexan-3-yl}azacyclobutan-3-yl)-1-methylimidazo[1,5-a]pyridin-5-yl]-N-(isopropyl)benzamide], the IC50 came to 2.9 nM.

Consider `CCN1CCN(CCC[C@@H](C(C)C)N2CC(c3cc(-c4ccc(F)cc4C(=O)N4CCOC[C@H]4C)c4cnc(C)n4c3)C2)CC1` [Example 324-1], for which the IC50 was determined as 126 nM.

Consider `CC(=O)N1CCC(CN2CC(c3cc(-c4ccc(F)cc4C(=O)N4CCOC[C@H]4C)c4cnn(C)c4c3)C2)CC1` [Example 177], for which the half-inhibitory concentration (IC50) is 217 nM.

In the case of `CCN(C(=O)c1cc(F)ccc1-c1cc(C2CN([C@H](CN3CCN(CCOC)CC3)C(C)C)C2)cc2c1cnn2C)C(C)C` [Example 422], the half-inhibitory concentration (IC50) was 29 nM.

Consider `CCN(C(=O)c1cc(F)ccc1-c1cc(C2CN(C(CO)C(C)C)C2)cn2c(C)ncc12)C(C)C` (stereo not shown) [Example 421, N-ethyl-5-fluoro-2-{6-[1-(1-hydroxyl-3-methylbutan-2-yl)azacyclobutan-3-yl]-3-methylimidazo[1,5-a]pyridin-8-yl}-N-(isopropyl)benzamide], for which the IC50 was 14 nM.

Consider `CCN(C(=O)c1cc(F)ccc1-c1cc(C2CCN(C[C@H]3CC[C@H](NC(=O)OC(C)(C)C)CC3)C2)cn2cncc12)C(C)C` (mixture of isomers) [Example 21, N-[(1r,4r)-4-{[3-(8-{2-[ethyl(isopropyl)aminoformyl]-4-fluorophenyl}imidazo[1,5-a]pyridin-6-yl)pyrrolidin-1-yl]methyl}cyclohexyl]tert-butyl carbamate], for which the IC50 turned out to be 18.5 nM.

For `CC(=O)N1CC2CC(C1)N2CCC[C@H](C(C)C)N1CC(c2cc(-c3ccc(F)cc3C(=O)N3CCOC[C@H]3C)c3cnn(C)c3c2)C1` [Example 386], the half-maximal inhibitory concentration (IC50) worked out at 20 nM.

With `CC(=O)N1CCN(CCC[C@H](C(C)C)N2CC(c3cc(-c4ccc(F)cc4C(=O)N4CCOC[C@H]4C)c4c(F)nc(C)n4c3)C2)CC12CC2` [Example 340], the IC50 was 33 nM.

For `CCN(C(=O)c1cc(F)ccc1-c1cc(C2CN([C@H](CCCN3CCN(CCC#N)C(=O)C3)C(C)C)C2)cn2c(C)ncc12)C(C)C` [Example 493], the concentration for half-maximal inhibition (IC50) was found to be 5 nM.

As for `CCN(C(=O)c1cc(F)ccc1-c1cc(C2CN([C@H](CCCN3CCNC4(COC4)C3)C(C)C)C2)cn2c(C)ncc12)C(C)C` [Example 483, N-ethyl-5-fluoro-2-(3-methyl-6-{1-[(3R)-2-methyl-6-{2-oxa-5,8-diazaspiro[3.5]non-8-yl}hexan-3-yl]azacyclobutan-3-yl}imidazo[1,5-a]pyridin-8-yl)-N-(isopropyl)benzamide], the 50% inhibitory concentration (IC50) worked out at 19 nM.

`Cc1nc(F)c2c(-c3ccc(F)cc3C(=O)N3CCOC[C@H]3C)cc(C3CN([C@@H](C)C4CCN(C(=O)CC(F)F)CC4)C3)cn12` [Example 304]: the 50% inhibitory concentration (IC50) is 8 nM.

Turning to `CCN(C(=O)c1cc(F)ccc1-c1cc(C2CN([C@H](C)C3CCN(C(=O)NC)CC3)C2)cn2c(C)nc(F)c12)C(C)C` [Example 283-1], the half-maximal inhibitory concentration (IC50) turned out to be 20 nM.
